For test [1], the target named is JAK3 (Homo sapiens (Human), UniProt P52333). Put plainly: Jak Biochemical HTRF Assay (JAK3). The following applies: recombinant GST-tagged catalytic domain, [ATP] 2.9 μM. As for the experimental part: (§1) Biological Assays Jak Biochemical HTRF Assay Protocol
The ability of compounds to inhibit the activity of JAK1, JAK2, JAK3, and Tyk2 was measured using a recombinant purified GST-tagged catalytic domain for each enzyme (Invitrogen JAK1 #M4290, JAK2 #M4290, JAK3 #M4290, Tyk2 #M4290) in an HTRF format biochemical assay. […] Subsequent reagent additions employed an Agilent Bravo. […] After equilibration, 2 μL of 10×ATP in 1× assay buffer was added to initiate the kinase reaction and the plates were shaken and then incubated at room temperature for 120 minutes. At the end of the incubation, 20 μL of 2× stop buffer (streptavidin-Dylight 650 (Thermo #84547B100 mL), Eu-tagged pY20 antibody (Perkin Elmer #AD0067), EDTA, HEPES, and Triton) was added to quench the reaction. […] After normalization to untreated controls, the percent inhibition of the HTRF signal at each compound concentration was calculated. The plot of percent inhibition versus the log of compound concentration was fit with a 4-parameter dose response equation to calculate IC50 values.
Background: Time-resolved FRET reads energy transfer from a long-lived donor to a nearby acceptor.

Test [2] addresses JAK2 (Homo sapiens (Human), UniProt O60674). Put plainly: Jak Biochemical HTRF Assay (JAK2). The following applies: recombinant GST-tagged catalytic domain, [ATP] 8.5 μM. As for the experimental part: as §1
The ability of compounds to inhibit the activity of JAK1, JAK2, JAK3, and Tyk2 was measured using a recombinant purified GST-tagged catalytic domain for each enzyme (Invitrogen JAK1 #M4290, JAK2 #M4290, JAK3 #M4290, Tyk2 #M4290) in an HTRF format biochemical assay. […] The basic assay protocol is as follows: First, 250 nL of diluted compounds in DMSO were dispensed into the wells of a dry 384-well Black plate (Greiner #781076) using a Labcyte Echo 555 acoustic dispenser. Subsequent reagent additions employed an Agilent Bravo. Next, 18 μL of 1.11× enzyme and 1.11× substrate in 1× assay buffer (Invitrogen kinase buffer # PV3189, 2 mM DTT, 0.05% BSA) were added to the wells and shaken and then preincubated for 30 minutes at room temperature to allow compound binding to equilibrate. After equilibration, 2 μL of 10×ATP in 1× assay buffer was added to initiate the kinase reaction and the plates were shaken and then incubated at room temperature for 120 minutes. At the end of the incubation, 20 μL of 2× stop buffer (streptavidin-Dylight 650 (Thermo #84547B100 mL), Eu-tagged pY20 antibody (Perkin Elmer #AD0067), EDTA, HEPES, and Triton) was added to quench the reaction. Plates were shaken and centrifuged and then incubated 60 minutes at room temperature and then read on a Perkin Elmer Envision (λex=337 nm, λem=665 and 615 nm, TRF delay time=20 μs). HTRF signal=10,000*665 nm reading 615 nm reading. After normalization to untreated controls, the percent inhibition of the HTRF signal at each compound concentration was calculated. The plot of percent inhibition versus the log of compound concentration was fit with a 4-parameter dose response equation to calculate IC50 values.

As usually defined, the IC50 is the concentration needed to halve the response being measured.

Sequence of JAK3 (P52333 822-1111): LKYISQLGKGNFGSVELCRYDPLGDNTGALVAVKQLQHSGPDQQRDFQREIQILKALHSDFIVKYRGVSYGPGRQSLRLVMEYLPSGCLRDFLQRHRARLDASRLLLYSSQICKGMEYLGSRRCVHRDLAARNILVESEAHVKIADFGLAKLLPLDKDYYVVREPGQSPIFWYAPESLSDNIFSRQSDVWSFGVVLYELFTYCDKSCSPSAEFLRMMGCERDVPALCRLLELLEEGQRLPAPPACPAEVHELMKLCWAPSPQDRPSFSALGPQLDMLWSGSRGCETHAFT
Sequence of JAK2 (O60674 849-1124): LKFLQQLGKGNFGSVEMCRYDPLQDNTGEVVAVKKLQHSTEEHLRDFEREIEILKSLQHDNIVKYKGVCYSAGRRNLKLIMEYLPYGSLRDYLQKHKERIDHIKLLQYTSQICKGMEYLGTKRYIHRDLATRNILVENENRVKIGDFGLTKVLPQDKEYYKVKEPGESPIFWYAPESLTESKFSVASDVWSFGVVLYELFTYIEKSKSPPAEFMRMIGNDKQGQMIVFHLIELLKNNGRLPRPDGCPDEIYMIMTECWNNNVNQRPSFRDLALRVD

`CCOC(=O)c1c[nH]c2ncnc(-c3cccnc3)c12` [Example 1-28, ethyl 4-pyridin-3-yl-7H-pyrrolo[2,3-d]pyrimidine-5-carboxylate]: the IC50 in test [1] (given as range class) was 10 to 500 nM; in test [2] (given as range class), more than 500 nM.
The matching figures for `CCOC(=O)c1c[nH]c2ncnc(-c3ccc4c(C(=O)N(C)C)n(C)nc4c3)c12` [Example 1-30, ethyl 4-[3-(dimethylcarbamoyl)-2-methyl-2H-indazol-6-yl]-7H-pyrrolo[2,3-d]pyrimidine-5-carboxylate]: 10 to 500 nM and more than 500 nM.
Take `CCOC(=O)c1c[nH]c2ncnc(-c3ccc4c(c3)NCC4)c12` [Example 1-31, ethyl 4-(2,3-dihydro-1H-indol-6-yl)-7H-pyrrolo[2,3-d]pyrimidine-5-carboxylate]: the IC50 in test [1] was found to be 4.6 nM; in test [2], 91 nM.
For the compound `CCOC(=O)c1c[nH]c2ncnc(-c3ccc(COC)c(N)c3)c12` [Example 1-33, ethyl 4-[3-amino-4-(methoxymethyl)phenyl]-7H-pyrrolo[2,3-d]pyrimidine-5-carboxylate], the IC50 is 10 to 500 nM in test [1] (given as range class) and more than 500 nM in test [2] (given as range class).
In the case of `CCOC(=O)c1c[nH]c2ncnc(-c3ccc(F)cc3)c12` [Example 1-34, ethyl 4-(4-fluorophenyl)-7H-pyrrolo[2,3-d]pyrimidine-5-carboxylate], the IC50 in test [1] (given as range class) and in test [2] (given as range class) was 10 to 500 nM each time.
Turning to `CCOC(=O)c1c[nH]c2ncnc(-c3ccc(O)cc3)c12` [Example 1-35, ethyl 4-(4-hydroxyphenyl)-7H-pyrrolo[2,3-d]pyrimidine-5-carboxylate], the IC50 in test [1] amounted to 5.7 nM; in test [2] it was 134 nM.
Regarding `CCOC(=O)c1c[nH]c2ncnc(-c3ccc(C(F)(F)F)cc3)c12` [Example 1-36, ethyl 4-[4-(trifluoromethyl)phenyl]-7H-pyrrolo[2,3-d]pyrimidine-5-carboxylate], the IC50 in test [1] (given as range class) was 10 to 500 nM; in test [2] (given as range class), more than 500 nM.
For the compound `CCOC(=O)c1c[nH]c2ncnc(-c3ccc(C)cc3)c12` [Example 1-37, ethyl 4-(4-methylphenyl)-7H-pyrrolo[2,3-d]pyrimidine-5-carboxylate], the 50% inhibitory concentration (IC50) in test [1] (given as range class) and in test [2] (given as range class) was 10 to 500 nM throughout.
On to `CCOC(=O)c1c[nH]c2ncnc(-c3ccccc3C)c12` [Example 1-38, ethyl 4-(2-methylphenyl)-7H-pyrrolo[2,3-d]pyrimidine-5-carboxylate], for which the figures for the IC50 in test [1] (given as range class) and in test [2] (given as range class) were 10 to 500 nM and more than 500 nM, respectively.
`CCOC(=O)c1c[nH]c2ncnc(-c3ccc4ccccc4c3)c12` [Example 1-40, ethyl 4-naphthalen-2-yl-7H-pyrrolo[2,3-d]pyrimidine-5-carboxylate]: the IC50 in test [1] was 8.8 nM; in test [2], 186 nM.
As for `CCOC(=O)c1c[nH]c2ncnc(-c3ccccc3F)c12` [Example 1-41, ethyl 4-(2-fluorophenyl)-7H-pyrrolo[2,3-d]pyrimidine-5-carboxylate], the IC50 in test [1] came to 7.5 nM; in test [2], 168 nM.
In the same order, the values of `CCOC(=O)c1c[nH]c2ncnc(-c3cccc(F)c3)c12` [Example 1-42, ethyl 4-(3-fluorophenyl)-7H-pyrrolo[2,3-d]pyrimidine-5-carboxylate] are 9 nM and 121 nM.
Regarding `CCOC(=O)c1c[nH]c2ncnc(-c3ccccc3Cl)c12` [Example 1-43, ethyl 4-(2-chlorophenyl)-7H-pyrrolo[2,3-d]pyrimidine-5-carboxylate], the IC50 is 10 to 500 nM in test [1] (given as range class) and more than 500 nM in test [2] (given as range class).
With `CCOC(=O)c1c[nH]c2ncnc(-c3ccc(-c4ccccc4)cc3)c12` [Example 1-44, ethyl 4-biphenyl-4-yl-7H-pyrrolo[2,3-d]pyrimidine-5-carboxylate], the IC50 in test [1] came to 4.2 nM; in test [2] it was 47 nM.
The matching figures for `CCOC(=O)c1c[nH]c2ncnc(-c3cccc(O)c3)c12` [Example 1-45, ethyl 4-(3-hydroxyphenyl)-7H-pyrrolo[2,3-d]pyrimidine-5-carboxylate]: 5.6 nM and 127 nM.
On to `CCOC(=O)c1c[nH]c2ncnc(-c3cccc(C)c3)c12` [Example 1-46, ethyl 4-(3-methylphenyl)-7H-pyrrolo[2,3-d]pyrimidine-5-carboxylate], for which the values for the IC50 in test [1] and in test [2] were 7.6 nM and 143 nM, respectively.
In the same order, the values of `CCOC(=O)c1c[nH]c2ncnc(-c3ccc(N(C)C)cc3)c12` [Example 1-47, ethyl 4-[4-(dimethylamino)phenyl]-7H-pyrrolo[2,3-d]pyrimidine-5-carboxylate] are 3.3 nM and 90 nM.
Consider `CCOC(=O)c1c[nH]c2ncnc(-c3ccc4c(c3)OCO4)c12` [Example 1-48, ethyl 4-(1,3-benzodioxol-5-yl)-7H-pyrrolo[2,3-d]pyrimidine-5-carboxylate], for which the figures for the IC50 in test [1] and in test [2] were 3.8 nM and 66 nM, respectively.
Regarding `CCOC(=O)c1c[nH]c2ncnc(-c3ccc4ncccc4c3)c12` [Example 1-49, ethyl 4-quinolin-6-yl-7H-pyrrolo[2,3-d]pyrimidine-5-carboxylate], the IC50 is 10 to 500 nM in test [1] (given as range class) and more than 500 nM in test [2] (given as range class).
For the compound `CCOC(=O)c1c[nH]c2ncnc(-c3cc4ccccc4s3)c12` [Example 1-50, ethyl 4-(1-benzothiophen-2-yl)-7H-pyrrolo[2,3-d]pyrimidine-5-carboxylate], the IC50 in test [1] is 4.8 nM; in test [2] it was 54 nM.
Consider `CCOC(=O)c1c[nH]c2ncnc(-c3cn[nH]c3)c12` [Example 1-51, ethyl 4-(1H-pyrazol-4-yl)-7H-pyrrolo[2,3-d]pyrimidine-5-carboxylate], for which the IC50 is 10 to 500 nM in test [1] (given as range class) and more than 500 nM in test [2] (given as range class).
With `CCOC(=O)c1c[nH]c2ncnc(-c3ccc4[nH]ccc4c3)c12` [Example 1-53, ethyl 4-(1H-indol-5-yl)-7H-pyrrolo[2,3-d]pyrimidine-5-carboxylate], the IC50 in test [1] is 1.5 nM; in test [2], 35 nM.
As to `CCOC(=O)c1c[nH]c2ncnc(-c3cc4ccccc4o3)c12` [Example 1-54, ethyl 4-(1-benzofuran-2-yl)-7H-pyrrolo[2,3-d]pyrimidine-5-carboxylate], the IC50 in test [1] came to 4 nM; in test [2], 61 nM.
Turning to `CCOC(=O)c1c[nH]c2ncnc(-c3ccccc3N)c12` [Example 1-55, ethyl 4-(2-aminophenyl)-7H-pyrrolo[2,3-d]pyrimidine-5-carboxylate], the IC50 was 10 to 500 nM in test [1] (given as range class) and more than 500 nM in test [2] (given as range class).
Turning to `CCOC(=O)c1c[nH]c2ncnc(-c3cccs3)c12` [Example 1-56, ethyl 4-thiophen-2-yl-7H-pyrrolo[2,3-d]pyrimidine-5-carboxylate], the IC50 in test [1] (given as range class) and in test [2] (given as range class) was 10 to 500 nM each time.
In the case of `CCOC(=O)c1c[nH]c2ncnc(-c3ccsc3)c12` [Example 1-57, ethyl 4-thiophen-3-yl-7H-pyrrolo[2,3-d]pyrimidine-5-carboxylate], the IC50 in test [1] (given as range class) and in test [2] (given as range class) was 10 to 500 nM each time.
Consider `CCOC(=O)c1c[nH]c2ncnc(-c3ccc(CO)nc3)c12` [Example 1-58, ethyl 4-[6-(hydroxymethyl)pyridin-3-yl]-7H-pyrrolo[2,3-d]pyrimidine-5-carboxylate], for which the results for the IC50 in test [1] (given as range class) and in test [2] (given as range class) were 10 to 500 nM and more than 500 nM, respectively.
Regarding `CCOC(=O)c1c[nH]c2ncnc(-c3cccc(OC(F)F)c3)c12` [Example 1-59, ethyl 4-[3-(difluoromethoxy)phenyl]-7H-pyrrolo[2,3-d]pyrimidine-5-carboxylate], the IC50 in test [1] (given as range class) and in test [2] (given as range class) was 10 to 500 nM each time.
With `CCOC(=O)c1c[nH]c2ncnc(-c3ccnc(CO)c3)c12` [Example 1-60, ethyl 4-[2-(hydroxymethyl)pyridin-4-yl]-7H-pyrrolo[2,3-d]pyrimidine-5-carboxylate], the IC50 in test [1] (given as range class) was 10 to 500 nM; in test [2] (given as range class), more than 500 nM.
On to `CCOC(=O)c1c[nH]c2ncnc(-c3cccc4ccsc34)c12` [Example 1-61, ethyl 4-(1-benzothiophen-7-yl)-7H-pyrrolo[2,3-d]pyrimidine-5-carboxylate], for which the IC50 is 10 to 500 nM in test [1] (given as range class) and more than 500 nM in test [2] (given as range class).

The values above are taken from patent US8993756B2 (Merck Sharp & Dohme Corp., priority 2011, dated 2015).
